Data taken from patent publication US20240277890A1, “ANTIMICROBIAL ARTICLES COMPRISING POLYURETHANE” (Amicoat AS, priority 2021, published 2024).
In brackets after ≈: the same amount, converted by molar mass.

What was measured:
[1] = tested on: Listeria monocytogenes - antibiotic-susceptible clinical isolate
[2] = tested on: Staphylococcus aureus - teicoplanin-intermediate clinical isolate
[3] = tested on: Streptococcus pyogenes - Macrolide (MLS) resistant clinical isolate
[4] = tested on: Microsporum canis - G.R. Micro collection
[5] = tested on: Enterobacter sp - multi-drug resistant clinical isolate
[6] = tested on: Aspergillus niger - G.R. Micro collection
[7] = tested on: EMRSA15 Staphylococcus aureus (MRSA) - SSCmec type 4; details: EMRSA15 - SSCmec type 4
[8] = tested on: Shigella sp - antibiotic-susceptible clinical isolate; assay: MIC microbroth dilution (CLSI); format: cell-based
[9] = tested on: EMRSA16 Staphylococcus aureus (MRSA) - SSCmec type 2; details: EMRSA16 - SSCmec type 2
[10] = tested on: Salmonella sp - antibiotic-susceptible clinical isolate; assay: MIC microbroth dilution (CLSI); format: cell-based
[11] = tested on: EMRSA3 Staphylococcus aureus (MRSA) - SSCmec type 1; details: EMRSA3 - SSCmec type 1
[12] = tested on: Staphylococcus saprophyticus - antibiotic susceptible clinical isolate
[13] = tested on: Streptococcus pneumoniae - penicillin-susceptible clinical isolate
[14] = tested on: Group C Streptococcus - antibiotic-susceptible clinical isolate
[15] = tested on: Klebsiella aerogenes NCTC11228 - antibiotic-susceptible type strain
[16] = tested on: Streptococcus bovis - antibiotic-susceptible clinical isolate
[17] = tested on: Candida parapsilosis ATCC90018 - reference strain
[18] = tested on: Corynebacterium jeikeium - antibiotic-susceptible clinical isolate
[19] = tested on: Staphylococcus aureus ATCC 25923 - antibiotic-susceptible control strain
[20] = tested on: Enterococcus faecium vancomycin-susceptible clinical isolate
[21] = tested on: Methicillin resistant Staphylococcus aureus (MRSA) strain ATCC 33591; details: ATCC 33591
[22] = tested on: Stenotrophomonas maltophilia - antibiotic-susceptible clinical isolate
[23] = tested on: Klebsiella aerogenes - multi-drug resistant clinical isolate
[24] = tested on: Morganella morganii - multi-drug resistant clinical isolate
[25] = tested on: Staphylococcus epidermidis antibiotic susceptible clinical isolate
[26] = tested on: Staphylococcus aureus FDA486; assay: Murine skin infection model, one day topical treatment; format: in vivo, mice; details: 2% cream; compared to placebo cream, Fucidin ointment 2% and Bactroban cream 2%
Experimental: The skin of mice was infected with Staphylococcus aureus or Streptococcus pyogenes and subsequently given a total of three treatments at three hourly intervals. Three hours after the last treatment, skin biopsies were collected and the number of colony forming units (CFUs) present in the skin sample was determined. Results are shown in FIGS. 3, 4 and 5 expressed as the number of colony forming units per mouse.

[27] = tested on: Staphylococcus aureus, strain ATCC 25923; details: ATCC 25923
[28] = tested on: Enterococcus faecium vancomycin-resistant (VanA) clinical isolate
[29] = tested on: Enterococcus gallinarum vancomycin-resistant (VanC) clinical isolate
[30] = tested on: Staphylococcus aureus - multi-drug-resistant clinical isolate
[31] = tested on: Escherichia coli - multi-drug resistant clinical isolate
[32] = tested on: Group G Streptococcus - macrolide-resistant clinical isolate

CCCCCCNC(=O)[C@H](CCCNC(=N)N)NC(=O)[C@H](Cc1c(C(C)(C)C)[nH]c2c(C(C)(C)C)cc(C(C)(C)C)cc12)NC(=O)[C@@H](N)CCCNC(=N)N [Compound 8]
MIC [1]: 8 µg/mL (≈ 10.4 µM) | MIC [2]: 4 µg/mL (≈ 5.21 µM) | MIC [3]: 8 µg/mL (≈ 10.4 µM) | MIC [4]: 4 µg/mL (≈ 5.21 µM) | MIC [5]: 8 µg/mL (≈ 10.4 µM) | MIC [6]: 4 µg/mL (≈ 5.21 µM) | MIC [7]: 4 µg/mL (≈ 5.21 µM) | MIC [8]: 4 µg/mL (≈ 5.21 µM) | MIC [9]: 4 µg/mL (≈ 5.21 µM) | MIC [10]: 8 µg/mL (≈ 10.4 µM) | MIC [11]: 4 µg/mL (≈ 5.21 µM) | MIC [12]: 0.5 µg/mL (≈ 0.651 µM) | MIC [13]: 8 µg/mL (≈ 10.4 µM) | MIC [14]: 8 µg/mL (≈ 10.4 µM) | MIC [15]: 8 µg/mL (≈ 10.4 µM) | MIC [16]: 8 µg/mL (≈ 10.4 µM) | C. albicans (MIC) (C. albicans): 5 µg/mL | MIC [17]: 8 µg/mL (≈ 10.4 µM) | MIC [18]: 4 µg/mL (≈ 5.21 µM) | MIC [19]: 4 µg/mL (≈ 5.21 µM) | MIC [20]: 4 µg/mL (≈ 5.21 µM) | MRSA (MIC) [21]: 2 µg/mL | MIC [22]: 4 µg/mL (≈ 5.21 µM) | MIC [23]: 8 µg/mL (≈ 10.4 µM) | MIC [24]: 8 µg/mL (≈ 10.4 µM) | E. coli (MIC) (E. coli): 5 µg/mL | MIC [25]: 8 µg/mL (≈ 10.4 µM) | number of CFUs in skin biopsy [26]: more effective at reducing the number of CFUs than the placebo and fucidin or bactroban | S. aureus (MIC) [27]: 2 µg/mL | MIC [28]: 4 µg/mL (≈ 5.21 µM) | MIC [29]: 4 µg/mL (≈ 5.21 µM) | MIC [30]: 4 µg/mL (≈ 5.21 µM) | P. aeruginosa (MIC) (P. aeruginosa): 5 µg/mL | MIC [31]: 8 µg/mL (≈ 10.4 µM) | MIC [32]: 8 µg/mL (≈ 10.4 µM)
